Measurements published in patent US20230085307A1, “PYRIDAZINONE COMPOUND AND HERBICIDE” (NISSAN CHEMICAL CORPORATION, priority 2019, published 2023).

Columns and labels:
[1] = tested on: barnyard grass; test: Test Example 4: herbicidal effect by soil treatment (Table 19, symbol H); format: in vivo, barnyard grass (Echinochloa crus-galli)
Method in brief: (§1)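 Scoring uses the grading scale of an earlier test, three weeks post-application. Treatment consists of spraying a diluted emulsion formulation across the surface of sterilized diluvial soil in which seeds are buried near 1.5 cm deep; boxes are kept in a greenhouse between 25° C. and 30° C.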

[2] = tested on: southern crabgrass; test: Test Example 5: herbicidal effect by foliage application, plastic box (Table 20, symbol F); format: in vivo, southern crabgrass (Digitaria ciliaris); conditions: foliage application; for herbicidal effect on southern crabgrass (F) / F (southern crabgrass) herbicidal effect grade: 320 g/ha; for F (southern crabgrass) herbicidal effect grade: evaluated 3 weeks after application
Method in brief: (§2)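 Post-emergence foliar test in sterilized diluvial soil. Compound applied as water-diluted emulsion at a predetermined rate to 14-day-old plants; evaluation at three weeks.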

[3] = tested on: green foxtail; test: Test Example 4: herbicidal effect by soil treatment (Table 19, symbol G); format: in vivo, green foxtail (Setaria viridis); conditions: amount of applied herbicide 320 g/ha
Method in brief: as §1

[4] = tested on: late watergrass; test: Test Example 1: herbicidal activity, application before weed generation under submerged conditions (Table 16, symbol A); format: in vivo, late watergrass (Echinochloa oryzicola)
Method in brief: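 Submerged Wagner pots (alluvial soil, 4 cm water) sown with weed seeds and planted with 2.5-leaf rice seedlings; emulsifiable concentrate diluted in water applied to water surface on sowing day. Held in greenhouse at 25-30 °C; injury scored 0-5 by herbicidal rate after three weeks.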

[5] = tested on: redroot pigweed; test: Test Example 4: herbicidal effect by soil treatment (Table 19, symbol N); format: in vivo, redroot pigweed (Amaranthus retroflexus)
Method in brief: as §1

[6] = tested on: chickweed; test: Test Example 4: herbicidal effect by soil treatment (Table 19, symbol P); format: in vivo, common chickweed (Stellaria media)
Method in brief: as §1

[7] = tested on: false cleavers; test: Test Example 5: herbicidal effect by foliage application, plastic box (Table 20, symbol Q); format: in vivo, false cleavers (Galium spurium); conditions: foliage application, three weeks after application; for herbicidal effect on false cleavers (Q): 320 g/ha
Method in brief: as §2

[8] = tested on: blackgrass; test: Test Example 5: herbicidal effect by foliage application, plastic box (Table 20, symbol J); format: in vivo, blackgrass (Alopecurus myosuroides); conditions: foliage application; for herbicidal effect on blackgrass (J) / J (blackgrass) herbicidal effect grade: 320 g/ha; for J (blackgrass) herbicidal effect grade: evaluated 3 weeks after application
Method in brief: as §2

[9] = tested on: blackgrass; test: Test Example 4: herbicidal effect by soil treatment (Table 19, symbol J); format: in vivo, blackgrass (Alopecurus myosuroides)
Method in brief: as §1

[10] = tested on: Chinese sprangletop; test: Test Example 3: herbicidal effect by foliage application, Wagner pot (Table 18, symbol D); format: in vivo, chinese sprangletop (Leptochloa chinensis); conditions: for Herbicidal effect on D (Chinese sprangletop), foliage application: amount of applied herbicide 320 g/ha
Method in brief: (§3)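 Plants were sown in alluvial soil held under 0.1–0.5 cm standing water and grown 14 days in a greenhouse at 25–30 °C. An emulsifiable formulation, water-diluted to the set dose, was then sprayed onto the foliage, and effects were scored three weeks later using previously defined criteria.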

[11] = tested on: persian speedwell; test: Test Example 5: herbicidal effect by foliage application, plastic box (Table 20, symbol R); format: in vivo, Persian speedwell (Veronica persica); conditions: foliage application; for herbicidal effect on persian speedwell (R) / R (persian speedwell) herbicidal effect grade: 320 g/ha; for R (persian speedwell) herbicidal effect grade: evaluated 3 weeks after application
Method in brief: as §2

[12] = tested on: barnyard grass; test: Test Example 3: herbicidal effect by foliage application, Wagner pot (Table 18, symbol H); format: in vivo, barnyard grass (Echinochloa crus-galli); conditions: for Herbicidal effect on H (barnyard grass), foliage application: amount of applied herbicide 320 g/ha
Method in brief: as §3

[13] = tested on: windgrass; test: Test Example 4: herbicidal effect by soil treatment (Table 19, symbol L); format: in vivo, windgrass (Apera spica-venti); conditions: amount of applied herbicide 320 g/ha
Method in brief: as §1

[14] = tested on: green foxtail; test: Test Example 5: herbicidal effect by foliage application, plastic box (Table 20, symbol G); format: in vivo, green foxtail (Setaria viridis); conditions: foliage application; for herbicidal effect on green foxtail (G) / G (green foxtail) herbicidal effect grade: 320 g/ha; for G (green foxtail) herbicidal effect grade: evaluated 3 weeks after application
Method in brief: as §2

[15] = tested on: southern crabgrass; test: Test Example 4: herbicidal effect by soil treatment (Table 19, symbol F); format: in vivo, southern crabgrass (Digitaria ciliaris)
Method in brief: as §1

[16] = tested on: oval-leafed pondweed; test: Test Example 2: herbicidal activity, application during weed generation under submerged conditions (Table 17, symbol C); format: in vivo, oval-leafed pondweed (Monochoria vaginalis); conditions: for herbicidal effect rating, C: oval-leafed pondweed: application during weed generation, submerged conditions; for herbicidal effect grade, C: oval-leafed pondweed: application during weed generation under submerged conditions, amount of applied herbicide 320 g/ha
Method in brief: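 Alluvial soil in Wagner pots was flooded to 4 cm depth and sown with the three weeds together; pots were kept in a greenhouse at 25° C. to 30° C. At the one to two leaf stage, an emulsion formulation diluted in water to a set rate went onto the water surface; scored three weeks later.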

[17] = tested on: redroot pigweed; test: Test Example 5: herbicidal effect by foliage application, plastic box (Table 20, symbol N); format: in vivo, redroot pigweed (Amaranthus retroflexus); conditions: foliage application; for N (redroot pigweed) herbicidal effect grade: 320 g/ha, evaluated 3 weeks after application
Method in brief: as §2

[18] = amount of applied herbicide 320 g/ha
[19] = amount of applied herbicide 296 g/ha
[20] = 296 g/ha, three weeks after application

SMILES | H: barnyard grass, herbicidal effect grade [1, 18] | herbicidal effect on southern crabgrass (F) ([2]; three weeks after application) | G: green foxtail, herbicidal effect grade [3] | Herbicidal effect, A: late watergrass [4, 18] | N: redroot pigweed, herbicidal effect grade [5, 18] | P: chickweed, herbicidal effect grade [6, 18] | herbicidal effect on false cleavers (Q) [7] | herbicidal effect on blackgrass (J) ([8]; three weeks after application) | J: blackgrass, herbicidal effect grade [9, 18] | Herbicidal effect on D (Chinese sprangletop), foliage application [10] | herbicidal effect on persian speedwell (R) ([11]; three weeks after application) | Herbicidal effect on H (barnyard grass), foliage application [12] | L: windgrass, herbicidal effect grade [13] | herbicidal effect on green foxtail (G) ([14]; three weeks after application) | F: southern crabgrass, herbicidal effect grade [15, 18] | herbicidal effect rating, C: oval-leafed pondweed ([16]; AAH 320 g/ha) | F (southern crabgrass) herbicidal effect grade [2] | J (blackgrass) herbicidal effect grade [8] | N (redroot pigweed) herbicidal effect grade [17] | R (persian speedwell) herbicidal effect grade [11] | other results
Cc1nn(C)c(=O)c(-c2c(-c3ccc4c(c3)OCCO4)oc3ccccc23)c1O [8-002] | 3 (Herbicidal rate of 40% or more and less than 70%) | 1 (Herbicidal rate of 5% or more and less than 20%) | 3 (Herbicidal rate of 40% or more and less than 70%) | 4 (Herbicidal rate of 70% or more and less than 90%) | 2 (Herbicidal rate of 20% or more and less than 40%) | 5 (Herbicidal rate of 90% or more (almost completely withered)) | 0 (Herbicidal rate of 5% or less (almost no effect)) | 0 (Herbicidal rate of 5% or less (almost no effect)) | 0 (Herbicidal rate of 5% or less (almost no effect)) | 3 (Herbicidal rate of 40% or more and less than 70%) | 5 (Herbicidal rate of 90% or more (almost completely withered)) | 4 (Herbicidal rate of 70% or more and less than 90%) | 0 (Herbicidal rate of 5% or less (almost no effect)) | 3 (Herbicidal rate of 40% or more and less than 70%) | 3 (Herbicidal rate of 40% or more and less than 70%) | 5 (Herbicidal rate of 90% or more (almost completely withered)) |  |  |  |  | 
Cc1ccc2oc(-c3ccc4c(c3)OCCO4)c(-c3c(O)c(C)nn(C)c3=O)c2c1 [9-012] | 2 (Herbicidal rate of 20% or more and less than 40%) | 3 (Herbicidal rate of 40% or more and less than 70%) | 3 (Herbicidal rate of 40% or more and less than 70%) | 4 (Herbicidal rate of 70% or more and less than 90%) | 3 (Herbicidal rate of 40% or more and less than 70%) | 3 (Herbicidal rate of 40% or more and less than 70%) | 3 (Herbicidal rate of 40% or more and less than 70%) | 0 (Herbicidal rate of 5% or less (almost no effect)) | 0 (Herbicidal rate of 5% or less (almost no effect)) | 0 (Herbicidal rate of 5% or less (almost no effect)) | 5 (Herbicidal rate of 90% or more (almost completely withered)) | 4 (Herbicidal rate of 70% or more and less than 90%) | 0 (Herbicidal rate of 5% or less (almost no effect)) | 2 (Herbicidal rate of 20% or more and less than 40%) | 2 (Herbicidal rate of 20% or more and less than 40%) | 5 (Herbicidal rate of 90% or more (almost completely withered)) |  |  |  |  | 
Cc1ccc2oc(-c3ccc(OCC(C)C)cc3)c(-c3c(O)c(C)nn(C)c3=O)c2c1 [9-051] | 4 (Herbicidal rate of 70% or more and less than 90%) |  | 5 (Herbicidal rate of 90% or more (almost completely withered)) | 5 (Herbicidal rate of 90% or more (almost completely withered)) | 5 (Herbicidal rate of 90% or more (almost completely withered)) | 5 (Herbicidal rate of 90% or more (almost completely withered)) |  |  | 5 (Herbicidal rate of 90% or more (almost completely withered)) | 3 (Herbicidal rate of 40% or more and less than 70%) |  | 5 (Herbicidal rate of 90% or more (almost completely withered)) | 4 (Herbicidal rate of 70% or more and less than 90%) |  | 1 (Herbicidal rate of 5% or more and less than 20%) |  | 5 (Herbicidal rate of 90% or more (almost completely withered)) | 5 (Herbicidal rate of 90% or more (almost completely withered)) | 5 (Herbicidal rate of 90% or more (almost completely withered)) | 5 (Herbicidal rate of 90% or more (almost completely withered)) | G (green foxtail) herbicidal effect grade [14]: 5 (Herbicidal rate of 90% or more (almost completely withered)); herbicidal effect grade, C: oval-leafed pondweed [16]: 5 (Herbicidal rate of 90% or more (almost completely withered))
CCSc1ccc(-c2oc3ccc(C)cc3c2-c2c(O)c(C)nn(C)c2=O)cc1 [9-057] | 3 (Herbicidal rate of 40% or more and less than 70%) |  | 5 (Herbicidal rate of 90% or more (almost completely withered)) | 5 (Herbicidal rate of 90% or more (almost completely withered)) | 5 (Herbicidal rate of 90% or more (almost completely withered)) | 5 (Herbicidal rate of 90% or more (almost completely withered)) |  |  | 0 (Herbicidal rate of 5% or less (almost no effect)) | 3 (Herbicidal rate of 40% or more and less than 70%) |  | 5 (Herbicidal rate of 90% or more (almost completely withered)) | 0 (Herbicidal rate of 5% or less (almost no effect)) |  | 5 (Herbicidal rate of 90% or more (almost completely withered)) |  | 5 (Herbicidal rate of 90% or more (almost completely withered)) | 5 (Herbicidal rate of 90% or more (almost completely withered)) | 5 (Herbicidal rate of 90% or more (almost completely withered)) | 5 (Herbicidal rate of 90% or more (almost completely withered)) | G (green foxtail) herbicidal effect grade [14]: 5 (Herbicidal rate of 90% or more (almost completely withered)); herbicidal effect grade, C: oval-leafed pondweed [16]: 4 (Herbicidal rate of 70% or more and less than 90%)
CCCC(=O)Oc1c(C)nn(C)c(=O)c1-c1c(-c2ccccc2OC)sc2cc(OC)ccc12 [Compound No. 3-066, 5-(6-methoxy-2-(2-methoxyphenyl)benzo[b]thiophen-3-yl)-1,3-dimethyl-6-oxo-1,6-dihydropyridazin-4-yl=(n-butyrate)] |  |  |  |  |  |  |  |  |  |  |  |  |  |  |  |  |  |  |  |  | H: barnyard grass, herbicidal effect grade [1, 19]: 0 (Herbicidal rate of 5% or less (almost no effect)); F: southern crabgrass, herbicidal effect grade [2, 20]: 4 (Herbicidal rate of 70% or more and less than 90%); Herbicidal effect, A: late watergrass [4, 19]: 5 (Herbicidal rate of 90% or more (almost completely withered)); N: redroot pigweed, herbicidal effect grade [5, 19]: 0 (Herbicidal rate of 5% or less (almost no effect)); P: chickweed, herbicidal effect grade [6, 19]: 4 (Herbicidal rate of 70% or more and less than 90%); Q: false cleavers, herbicidal effect grade ([7]; 296 g/ha): 0 (Herbicidal rate of 5% or less (almost no effect)); J: blackgrass, herbicidal effect grade [8, 20]: 4 (Herbicidal rate of 70% or more and less than 90%); N: redroot pigweed, herbicidal effect grade [17, 20]: 5 (Herbicidal rate of 90% or more (almost completely withered)); J: blackgrass, herbicidal effect grade [9, 19]: 3 (Herbicidal rate of 40% or more and less than 70%); herbicidal effect on Chinese sprangletop (D) ([10]; 296 g/ha): 1 (Herbicidal rate of 5% or more and less than 20%); R: persian speedwell, herbicidal effect grade [11, 20]: 1 (Herbicidal rate of 5% or more and less than 20%); herbicidal effect on barnyard grass (H) ([12]; 296 g/ha): 5 (Herbicidal rate of 90% or more (almost completely withered)); G: green foxtail, herbicidal effect grade [14, 20]: 4 (Herbicidal rate of 70% or more and less than 90%); F: southern crabgrass, herbicidal effect grade [15, 19]: 0 (Herbicidal rate of 5% or less (almost no effect)); herbicidal effect rating, C: oval-leafed pondweed ([16]; AAH 296 g/ha): 5 (Herbicidal rate of 90% or more (almost completely withered))
